# Values of other authors in US12440499B2, “Topical composition” (MC2 Therapeutics Limited, priority 2018, dated 2025).
# Settings: in presence of water
smiles,measurement,value
C=C1/C(=C\C=C2/CCC[C@]3(C)[C@@H]([C@H](C)/C=C/[C@@H](O)C4CC4)CC[C@@H]23)C[C@@H](O)C[C@@H]1O [calcipotriol],pH value for maximum stability,above 8
